Measured values from patent publication US8193189B2, “Quinoxaline derivatives as tyrosine kinase activity inhibitors” (Novartis AG, priority 2007, dated 2012).
pIC50: −log10 of the molar value.

Tests used:
GST-JAK1(866-1154) = molecular target: T1, GST-JAK1(866-1154) (Homo sapiens, UniProt P23458); experiment: EPK JAK-family kinases profiling assay (Caliper mobility shift), JAK1; format: biochemical; settings: ATP 40 μM, 50 nM kinase
T1 construct: GST-JAK1(866-1154); made in house
Summary of the method: (§1)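 Turnover was read as substrate/product ratio after mobility-shift capillary-like separation of each reaction, run for 60 min at 30 °C with GST-tagged kinase domain, labelled peptide and ATP, and terminated with EDTA stop buffer.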

GST-JAK2(808-1132) = molecular target: T2, GST-JAK2(808-1132) (Homo sapiens, UniProt O60674); experiment: EPK JAK-family kinases profiling assay (Caliper mobility shift), JAK2; format: biochemical; settings: ATP 20 μM, 1.8 nM kinase
T2 construct: GST-JAK2(808-1132); purchased Invitrogen (Carlsbad, USA) #4288
T2 sequence (O60674 808-1132): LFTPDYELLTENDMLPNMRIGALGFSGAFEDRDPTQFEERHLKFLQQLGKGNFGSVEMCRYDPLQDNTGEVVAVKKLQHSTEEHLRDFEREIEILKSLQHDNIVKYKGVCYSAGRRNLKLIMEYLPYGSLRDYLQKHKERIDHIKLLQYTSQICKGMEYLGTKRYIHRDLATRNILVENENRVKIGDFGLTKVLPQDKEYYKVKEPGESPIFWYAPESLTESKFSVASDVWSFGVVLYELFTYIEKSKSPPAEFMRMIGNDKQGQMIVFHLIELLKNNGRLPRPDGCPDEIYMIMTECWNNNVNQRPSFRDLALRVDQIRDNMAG
Summary of the method: as §1

GST-JAK3(811-1124) = molecular target: T3, GST-JAK3(811-1124) (Homo sapiens, UniProt P52333); experiment: EPK JAK-family kinases profiling assay (Caliper mobility shift), JAK3; format: biochemical; settings: ATP 80 μM, 6 nM kinase
T3 construct: GST-JAK3(811-1124); made in house
T3 sequence (P52333 811-1124): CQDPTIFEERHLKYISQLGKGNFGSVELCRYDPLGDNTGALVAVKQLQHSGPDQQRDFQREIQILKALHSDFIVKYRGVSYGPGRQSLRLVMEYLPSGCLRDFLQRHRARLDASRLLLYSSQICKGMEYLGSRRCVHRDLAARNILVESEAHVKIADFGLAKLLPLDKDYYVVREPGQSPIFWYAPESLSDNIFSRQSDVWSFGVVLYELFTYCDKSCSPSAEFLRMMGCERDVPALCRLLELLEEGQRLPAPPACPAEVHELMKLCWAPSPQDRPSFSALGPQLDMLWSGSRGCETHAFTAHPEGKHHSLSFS
Summary of the method: as §1

GST-TYK2(888-1187) = molecular target: T4, GST-TYK2(888-1187) (Homo sapiens, UniProt P29597); experiment: EPK JAK-family kinases profiling assay (Caliper mobility shift), TYK2; format: biochemical; settings: ATP 30 μM, 40 nM kinase
T4 construct: GST-TYK2(888-1187); made in house
T4 sequence (P29597 888-1187): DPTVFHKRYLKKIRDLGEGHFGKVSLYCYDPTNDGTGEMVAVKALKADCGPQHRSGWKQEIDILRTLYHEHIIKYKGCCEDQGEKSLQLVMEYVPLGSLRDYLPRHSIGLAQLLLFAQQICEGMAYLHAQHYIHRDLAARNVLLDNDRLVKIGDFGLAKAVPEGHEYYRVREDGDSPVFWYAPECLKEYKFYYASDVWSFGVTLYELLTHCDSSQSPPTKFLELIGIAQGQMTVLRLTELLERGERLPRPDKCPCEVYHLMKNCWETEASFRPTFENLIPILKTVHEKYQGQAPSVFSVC
Summary of the method: as §1

[1] = system: JAK/STAT pathway (JAK1/JAK2-dependent nuclear translocation of STAT1-GFP); experiment: Inhibition of the JAK/STAT pathway: IFN-γ stimulated nuclear translocation of STAT1-GFP in HT1080 fibrosarcoma cells; format: cell-based; settings: Homo sapiens, HT-1080; HT1080 STAT1-GFP cells, 100 ng/ml IFN-γ 2 hours, compound added 30 min before; read-out: STAT1translo IC50
Summary of the method: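 HT1080 cells stably expressing STAT1-GFP, compounds added 30 min before IFN-γ stimulation at final 10 μM down to 0.003 μM (0.1% DMSO). Nuclear-cytoplasmic GFP intensity differential quantified by automated imaging with Hoechst nuclear mask, ≥1000 cells per well, averaged per well.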

T1 sequence (P23458 866-1154): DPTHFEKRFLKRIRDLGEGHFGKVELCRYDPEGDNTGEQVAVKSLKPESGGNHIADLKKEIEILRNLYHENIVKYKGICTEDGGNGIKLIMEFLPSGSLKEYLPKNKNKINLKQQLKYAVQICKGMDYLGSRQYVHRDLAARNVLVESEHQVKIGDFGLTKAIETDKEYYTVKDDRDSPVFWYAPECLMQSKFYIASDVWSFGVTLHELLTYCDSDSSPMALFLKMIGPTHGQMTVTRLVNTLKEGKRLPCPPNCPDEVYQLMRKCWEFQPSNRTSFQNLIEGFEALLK

Row | SMILES | pIC50 (GST-JAK1(866-1154)) | pIC50 (GST-JAK2(808-1132)) | pIC50 (GST-JAK3(811-1124)) | pIC50 (GST-TYK2(888-1187)) | pIC50 [1]
1 | COc1cc(-c2cnc3cccc(-c4ccc(CC(=O)N5CCOCC5)cc4)c3n2)ccc1OCCN1CCOCC1 [Example 34, 2-(4-{3-[3-Methoxy-4-(2-morpholin-4-yl-ethoxy)-phenyl]-quinoxalin-5-yl}-phenyl)-1-morpholin-4-yl-ethanone] | 7.57 | 8.39 | 6.31 | 7.06 | 6.47
2 | COc1cc(-c2cnc3cccc(-c4ccc(C(=O)N5CCOCC5)c(F)c4)c3n2)ccc1OCCN1CCOCC1 [Example 35, (2-Fluoro-4-{3-[3-methoxy-4-(2-morpholin-4-yl-ethoxy)-phenyl]-quinoxalin-5-yl}-phenyl)-morpholin-4-yl-methanone] | 7.03 | 7.92 | 5.73 | 6.28 | 5.76
3 | Cc1cc(-c2cnc3cccc(-c4cc(F)c(CN5CCOCC5)c(F)c4)c3n2)ccc1C(=O)N1CCN(C)CC1 [Example 42, {4-[8-(3,5-Difluoro-4-morpholin-4-ylmethyl-phenyl)-quinoxalin-2-yl]-2-methyl-phenyl}-(4-methyl-piperazin-1-yl)-methanone] | 6.15 | 7.74 | 5.67 | 5.84 | 6.07
4 | Cc1cc(-c2cccc3ncc(-c4ccc(C(=O)N5CCN(C)CC5)c(C)c4)nc23)ccc1CN1CCS(=O)(=O)CC1 [Example 43, (4-{8-[4-(1,1-Dioxido-thiomorpholin-4-ylmethyl)-3-methyl-phenyl]-quinoxalin-2-yl}-2-methyl-phenyl)-(4-methyl-piperazin-1-yl)-methanone] | 6.38 | 7.57 | 6.06 | 6.15 | 5.95
5 | Cc1cc(-c2cnc3cccc(-c4cc(F)c(CN5CCS(=O)(=O)CC5)c(F)c4)c3n2)ccc1C(=O)N1CCN(C)CC1 [Example 44, (4-{8-[4-(1,1-Dioxido-thiomorpholin-4-ylmethyl)-3,5-difluoro-phenyl]-quinoxalin-2-yl}-2-methyl-phenyl)-(4-methyl-piperazin-1-yl)-methanone] | 6.82 | 8.18 | 6.39 | 6.62 | 7.31
6 | COCCOc1ccc(-c2cnc3cccc(-c4cc(F)c(CN5CCOCC5)c(F)c4)c3n2)cc1OC [Example 50, 8-(3,5-Difluoro-4-morpholin-4-ylmethyl-phenyl)-2-[3-methoxy-4-(2-methoxy-ethoxy)-phenyl]-quinoxaline] | 7.42 | 8.15 | < 5.00 | 5.80 | 5.78
7 | COCCOc1ccc(-c2cnc3cccc(-c4ccc(CN5CCOCC5)c(F)c4)c3n2)cc1OC [Example 51, 8-(3-Fluoro-4-morpholin-4-ylmethyl-phenyl)-2-[3-methoxy-4-(2-methoxy-ethoxy)-phenyl]-quinoxaline] | 6.92 | 7.50 | < 5.00 | < 5.00 | 5.69
8 | COCCOc1ccc(-c2cnc3cccc(-c4ccc(CN5CCS(=O)(=O)CC5)c(C)c4)c3n2)cc1OC [Example 52, 8-[4-(1,1-Dioxido-thiomorpholin-4-ylmethyl)-3-methyl-phenyl]-2-[3-methoxy-4-(2-methoxy-ethoxy)-phenyl]-quinoxaline] | 7.01 | 7.49 | 5.96 | 6.01 | 5.53
9 | COCCOc1ccc(-c2cnc3cccc(-c4cc(F)c(CN5CCS(=O)(=O)CC5)c(F)c4)c3n2)cc1OC [Example 53, 8-[4-(1,1-Dioxido-thiomorpholin-4-ylmethyl)-3,5-difluoro-phenyl]-2-[3-methoxy-4-(2-methoxy-ethoxy)-phenyl]-quinoxaline] | 7.92 | > 8.52 | 6.67 | 7.03 | 6.82
10 | Cc1cc(-c2cnc3cccc(-c4ccc(CN5CCS(=O)(=O)CC5)cc4)c3n2)ccc1C(=O)N1CCOCC1 [Example 63, (4-{8-[4-(1,1-Dioxido-thiomorpholin-4-ylmethyl)-phenyl]-quinoxalin-2-yl}-2-methyl-phenyl)-morpholin-4-yl-methanone] | 6.43 | 7.11 | 5.37 | 5.84 | 6.01
11 | Cc1cc(-c2cnc3cccc(-c4cc(F)c(CN5CCS(=O)(=O)CC5)c(F)c4)c3n2)ccc1C(=O)N1CCOCC1 [Example 64, (4-{8-[4-(1,1-Dioxido-thiomorpholin-4-ylmethyl)-3,5-difluoro-phenyl]-quinoxalin-2-yl}-2-methyl-phenyl)-morpholin-4-yl-methanone] | 7.17 | 8.31 | 6.54 | 6.78 | 7.33
12 | Cc1cc(-c2cnc3cccc(-c4ccc(CN5CCS(=O)(=O)CC5)c(C)c4)c3n2)ccc1CN1CCOCC1 [Example 70, 8-[4-(1,1-Dioxido-thiomorpholin-4-ylmethyl)-3-methyl-phenyl]-2-(3-methyl-4-morpholin-4-ylmethyl-phenyl)-quinoxaline] | 6.44 | 7.52 | 5.76 | 5.87 | 6.25
13 | Cc1cc(-c2cnc3cccc(-c4cc(F)c(CN5CCOCC5)c(F)c4)c3n2)ccc1CN1CCOCC1 [Example 71, 8-(3,5-Difluoro-4-morpholin-4-ylmethyl-phenyl)-2-(3-methyl-4-morpholin-4-ylmethyl-phenyl)-quinoxaline] | 6.80 | 8.09 | 6.10 | 6.29 | 5.61
14 | COc1cc(-c2cnc3cccc(-c4ccc(CC(=O)N5CCOCC5)cc4)c3n2)ccc1OCCCN1CCOCC1 [Example 83, 2-(4-{3-[3-Methoxy-4-(3-morpholin-4-yl-propoxy)-phenyl]-quinoxalin-5-yl}-phenyl)-1-morpholin-4-yl-ethanone] | 7.47 | 8.20 | 6.05 | 6.57 | 5.68
15 | COc1cc(-c2cnc3cccc(-c4cc(F)c(CN5CCOCC5)c(F)c4)c3n2)ccc1OCCCN1CCOCC1 [Example 84, 8-(3,5-Difluoro-4-morpholin-4-ylmethyl-phenyl)-2-[3-methoxy-4-(3-morpholin-4-yl-propoxy)-phenyl]-quinoxaline] | 7.23 | 8.26 | 6.01 | 6.57 | 5.84
16 | COc1cc(-c2cnc3cccc(-c4ccc(CN5CCS(=O)(=O)CC5)c(F)c4)c3n2)ccc1OCCCN1CCOCC1 [Example 85, 8-[4-(1,1-Dioxido-thiomorpholin-4-ylmethyl)-3-fluoro-phenyl]-2-[3-methoxy-4-(3-morpholin-4-yl-propoxy)-phenyl]-quinoxaline] | 7.90 | 8.49 | 6.66 | 6.94 | 6.62
17 | COc1cc(-c2cnc3cccc(-c4cc(F)c(CN5CCS(=O)(=O)CC5)c(F)c4)c3n2)ccc1OCCCN1CCOCC1 [Example 86, 8-[4-(1,1-Dioxido-thiomorpholin-4-ylmethyl)-3,5-difluoro-phenyl]-2-[3-methoxy-4-(3-morpholin-4-yl-propoxy)-phenyl]-quinoxaline] | 8.18 | > 8.52 | 6.96 | 7.42 | 7.03
18 | CN1CCN(c2ccc(-c3cnc4cccc(-c5cc(F)c(CN6CCOCC6)c(F)c5)c4n3)cc2)CC1 [Example 87, 8-(3,5-Difluoro-4-morpholin-4-ylmethyl-phenyl)-2-[4-(4-methyl-piperazin-1-yl)-phenyl]-quinoxaline] | 6.65 | 7.47 | 5.46 | 6.14 | 5.88
19 | CN1CCN(c2ccc(-c3cnc4cccc(-c5ccc(CC(=O)N6CCOCC6)c(F)c5)c4n3)cc2)CC1 [Example 88, 2-(2-Fluoro-4-{3-[4-(4-methyl-piperazin-1-yl)-phenyl]-quinoxalin-5-yl}-phenyl)-1-morpholin-4-yl-ethanone] | 7.57 | 8.18 | 6.08 | 6.95 | 6.15
20 | CN1CCN(c2ccc(-c3cnc4cccc(-c5cc(F)c(C(=O)N6CCOCC6)c(F)c5)c4n3)cc2)CC1 [Example 89, (2,6-Difluoro-4-{3-[4-(4-methyl-piperazin-1-yl)-phenyl]-quinoxalin-5-yl}-phenyl)-morpholin-4-yl-methanone] | 6.87 | 7.47 | 5.40 | 6.35 | 5.87
